According to patent publication US20130267594A1, “PROLYL HYDROXYLASE INHIBITORS AS RADIATION MITIGATORS AND RADIATION PROTECTORS” (priority 2010, published 2013):

What was measured:
[1] = tested on: MTA3; type: cell-based
[2] = tested on: CHD4; type: cell-based
[3] = tested on: Suv39h1; type: cell-based
[4] = tested on: Hif1α; type: cell-based, mouse
[5] = tested on: Hif1α; type: cell-based
[6] = tested on: MTA3; type: cell-based; remark: listed apart in the source
[7] = tested on: CHD4; type: cell-based; remark: listed apart in the source

## [Cl-].[Cl-].[Co+2] [CoCl2]
[1]
  MTA3 mRNA levels: increased
[2]
  CHD4 protein levels: increased
[3]
  expression of the Suv39h1 methyltransferase: to a lesser extent, CoCl2, increased expression of the Suv39h1 methyltransferase
[4]
  ability to increase Hif1α levels in SuvDKO MEFs: not altered
[5]
  Hif1α protein levels: increased
  accumulation of Hif1α: significant accumulation of Hif1α
  accumulation of Hif1α protein in combination with IR, versus agent alone: much larger accumulation of Hif1α protein
[6]
  MTA3 protein levels: increased
[7]
  CHD4 mRNA levels: increased
